Measurements reported in patent publication US20220104468A1, “MODULATION OF LC3-ASSOCIATED ENDOCYTOSIS PATHWAY AND GENETICALLY MODIFIED NON-HUMAN ANIMALS AS A MODEL OF NEUROINFLAMMATION AND NEURODEGENERATION” (St. Jude Children's Research Hospital, priority 2019, published 2022).

Tests used:
Atg16L^ΔWD mice [1] = assay: Brain pathology by immunofluorescence/TUNEL after 8 weeks of MCC950 in mice with established disease; assay type: in vivo, mouse; conditions: MCC950 10 mg/kg i.p. every 3 days for 8 weeks
Method: Inflammasome inhibition has recently been proposed as putative therapeutic approach that reduces neuroinflammation and Tau phosphorylation (PMID: 31748742). Thus, Atg16L WD-domain deficient mice (Atg16L^ΔWD mice) with established disease (starting at 20 months of age) and behavioral impairment, as measured by both impaired spontaneous alternation and NOR (FIGS. 19A-19B), were treated with the brain-penetrant inflammasome inhibitor MCC950. […] However, no difference in Aβ deposition was observed between placebo and MCC950-treated mice (FIG. 19E).
Atg16^ΔWD mice were generated by deletion of the WD-domain of Atg16L, as previously described (Rai et al 2018(online) Autophagy 15(4)599-612). In brief, 2 stop codons were inserted into exon 6 of murine Atg16L1 immediately after glutamate E230 to preserve binding sites for WIPI2 (required for canonical autophagy) but prevent translation of the linker and WD-domain. Mice were produced and maintained on a mixed 129, C57BL/6 background. Unless otherwise noted, all experiments were performed on mixed sex cohorts at 2 years of age. Mice treated with MCC950 or placebo were mixed sex cohorts, 20 months of age at time of treatment onset and were treated for 8-weeks. The genetic backgrounds of mice used were assessed at the DartMouse™ Speed Congenic Core Facility at the Geisel School of Medicine at Dartmouth. DartMouse uses the Illumina, Inc. (San Diego, Calif.) Infinium Genotyping Assay to interrogate a custom panel of 5307 SNPs spread throughout the genome. The raw SNP data was analyzed using DartMouse's SNaP-Map™ and Map-Synth™ software, allowing the determination for each mouse of the genetic background at each SNP location. Background strain percentage was subsequently compared against markers of disease pathology to evaluate any influence stemming from variations in background (FIG. 18).
For preparation of brain tissue see “Preparation of brain samples” below. Slides were subjected to antigen retrieval using 1% sodium citrate boiling for 20 min followed by 3× PBS washing. Slides were blocked in 0.5% BSA in PBS. Antibody staining was carried out as described above. Following final washing, slides were mounted using ProLong Diamond Anti-Fade mounting media with DAPI.
Image analysis for relative Aβ, Iba1, and phospho-Tau staining was achieved by quantifying the mean fluorescent intensity (MFI) of either Iba1 or phospho-Tau signal using NIS-elements. Analysis and quantification of microglial morphology was achieved using Slidebook 6 software. Morphological state was determined by measuring cell diameter following 3D reconstruction and confirmed by manual counting/analysis of microglia shape per defined field across multiple areas of each slide. […]

Atg16L^ΔWD mice [2] = assay: Novel object recognition (NOR) after MCC950 treatment; assay type: in vivo, mouse; conditions: MCC950 8 weeks, trending towards wild-type littermates
Method: Novel object recognition (NOR) was performed in an open-field box (40 cm×40 cm). Mice were allowed to acclimate to the testing room for 48h. For habituation, mice were allowed to explore the open-field for 15 min per day for two days. Mice were then exposed to two identical objects for 10 min on the day of testing. 2h later a novel object was introduced, and mice were allowed to explore for 5 min during the test phase. The time spent exploring each object was quantified manually. Novel object preference (%) and the discrimination index ((time with novel)/(novel+familiar)*100) were calculated for each mouse.
(§1) Mice with established disease were treated for 8-weeks with either a vehicle (placebo) control or MCC950 (Invivogen) as reported previously (Gordon et al. 2018 Science Translational Medicine 10(465)). In brief, MCC950 was suspended in 100% DMSO and titrated to a working dose using sterile water. The final concentration of DMSO in the injection was <1%. Matching solution without MCC950 was used as the vehicle (placebo). Mice were injected every 3 days for 8-weeks at a dose of 10 mg/kg via intraperitoneal injection.

Atg16L^ΔWD mice [3] = assay: Y-maze spontaneous alternation after MCC950 treatment; assay type: in vivo, mouse; conditions: MCC950 8 weeks, trending towards wild-type littermates
Method: For Y-maze spontaneous alternation analysis, mice were housed in the testing room and allowed to acclimate for 48h. The Y-maze test consisted of a single 5 min trial per mouse. Spontaneous Alternation [%] was defined as consecutive entries in 3 different arms (ABC), divided by the number of possible alternations (total arm entries minus 2). Mice with less than 5 arm entries during the 5 min trial were excluded from the analysis.
as §1

BV2 microglia [4] = assay: Membrane-associated GFP-LC3 by flow cytometry; assay type: cell-based, murine; conditions: parental BV2 microglia, latrunculin A versus vehicle
Method: (§2) In an attempt to delineate the discrepancies in β-amyloid accumulation in the animal models presented above and the role of the autophagy proteins in this process, BV2 murine microglial cells expressing GFP-LC3 that are deficient in FIP200, ATG5, or Rubicon were engineered using CRISPR/Cas9 (FIG. 3A). Cells were cultured in the presence of neurotoxic oligomeric AP 1-42 labeled with TAMRA.
To quantify membrane association of GFP-LC3, cells were harvested and permeabilized using 200 μg/ml digitonin for 15 min on ice. Cytosolic GFP-LC3 was removed by washing cells 5× in cold PBS. Cells were then resuspended in 0.5% BSA in PBS for analysis by flow cytometry as described above.
(§3) To delineate between phagocytosis and endocytosis, cells were treated as indicated with the phagocytic inhibitor latrunculin A. Cells were pre-treated for 1 h prior to the addition of target substrates. The following control substrates were used, zymosan (phagocytosis) and dextran (endocytosis), both were fluorescently labeled as indicated. Co-incubation with specific substrates was carried out at 37° C. for 3h. Cells were either fixed for imaging or analyzed by flow cytometry as described above respectively.

BV2 microglia [5] = assay: Phagocytosis versus endocytosis substrate uptake with latrunculin A (flow cytometry, imaging); assay type: cell-based, murine; conditions: 50 μM latrunculin A
Method: as §2
For all uptake assays, cells were analyzed without fixation. For membrane-associated GFP-LC3 analysis, cells were processed as described below. For brain infiltrating monocytes, cells were isolated as described using the Neural Tissue Dissociation Kit (Miltenyi). Primary cells were fixed, permeabilized, and stained using the Cyto Fix/Perm Staining Kit (BD Bioscience) and the indicated, conjugated primary antibodies. For all experiments, cells were analyzed using a Sony SP6800 Spectral Analyzer (Sony). All analyses were performed using FlowJo v10.4 (Tree Star). Fluorescent compensation was performed using BD compensation beads (BD Bioscience).
as §3

[6] = tested on: BV2 murine microglial cells expressing GFP-LC3; assay: LC3 recruitment/co-localization to β-amyloid in GFP-LC3 BV2 cells (imaging); assay type: cell-based; conditions: parental BV2 GFP-LC3 cells, TAMRA-labeled oligomeric peptide
Method: as §2
(§4) Both labeled and unlabeled Ab1-42 was purchased in lyophilized form and resuspended according to the manufacturer's recommendation at a concentration of 100 μM (Anaspec). In brief, Ab1-42 was resuspended to 5 mM in DMSO and then adjusted to 100 μM using DMEM/F12 culture media. Oligomerization was allowed to occur for 24h at 4° C. prior to addition to cells at 1 μM unless otherwise indicated.
For all non-live cell-based imaging, cells were cultured in 4-well chamber slides (Ibidi) and were fixed and stained as indicated. In brief, cells were fixed with 4% PFA for 10 min followed by permeabilization using 200 μg/ml digitonin for 10 min. Cells were blocked in 0.5% BSA in PBS for 30 min prior to staining with primary antibodies overnight at 4° C. Cells were then washed 3× in PBS and then stained with the indicated fluorescent secondary antibodies for 30 min. Cells were subsequently washed 3× with PBS and post-fixed in 1% PFA for 10 min prior to imaging. […]

BV2 cells = assay: Pro-inflammatory gene expression by qPCR after oligomeric Aβ1-42; assay type: cell-based, murine; conditions: BV2 cells treated with Aβ1-42
Method: Similarly, the effects of Aβ1-42 on microglia were examined. As expected, BV2 cells treated with Aβ1-42 had elevated pro-inflammatory gene expression, including IL-1β, IL-6, CCL5, and TNFα as reported (Pan et al. (2011) Mol Neurodegener 6:45) and consistent with human disease.
as §4
Total RNA was isolated from cells or tissue using the RNeasy Kit (Qiagen) according to the manufacturer's instructions. First-strand synthesis was performed using M-MLV reverse transcriptase (Invitrogen). Realtime PCR was performed using SYBR GREEN PCR master mix (Applied Biosystems) in an Applied Biosystems 7900HT thermocycler using SyBr Green detection protocol as outlined by the manufacturer using the following PCR conditions: 50° C. for 2 min, 95° C. for 10 min, and 40 cycles of 95° C. for 15s and 60° C. for 1 min. mRNA was normalized to actin allowing for comparison of mRNA levels. Please see key reagents table for qPCR primer sequences.

CC(C)(O)c1coc(S(=O)(=O)NC(=O)Nc2c3c(cc4c2CCC4)CCC3)c1 [MCC950]
microglial activation (Iba1 staining, hippocampus) (Atg16L^ΔWD mice [1]; 20 months at onset, compared to placebo): reduced | Aβ deposition (hippocampus) (Atg16L^ΔWD mice [1]; versus placebo): no difference | Tau phosphorylation (S199/202, CA3-field) (Atg16L^ΔWD mice [1]; versus placebo): massive reduction | neurodegeneration as measured by TUNEL staining (CA3-field) (Atg16L^ΔWD mice [1]; versus placebo): massive reduction | behavioral and memory capacity in NOR (novel object preference, discrimination index) (Atg16L^ΔWD mice [2]): restoration | behavioral and memory capacity in the Y-maze (spontaneous alternation) (Atg16L^ΔWD mice [3]): restoration

C/C1=C/C(=O)O[C@@H]2C[C@@H](CC[C@H](C)/C=C\C=C\CC1)O[C@@](O)([C@@H]1CSC(=O)N1)C2 [latrunculin A]
association of LC3 to endosomal membranes in response to β-amyloid (BV2 microglia [4]): did not alter | uptake of the endocytic substrate dextran (BV2 microglia [5]; dextran 500 ng/ml): had no effect | internalization of the phagocytic substrate zymosan (BV2 microglia [5]; zymosan 4:1 particle:cell): prevented the internalization | uptake of β-amyloid (BV2 microglia [5]; β-amyloid 1 μM): had no effect

Aβ1-42: neurotoxic oligomeric β-amyloid 1-42 peptide, labeled or unlabeled (Anaspec)
co-localization/recruitment of LC3 to the β-amyloid [6]: induced rapid co-localization | pro-inflammatory gene expression, including IL-1β, IL-6, CCL5, and TNFα (BV2 cells): elevated
